“And” between values parts separate entries of the source, which are not always exact repeats. Identical values can stand only once. Like-named read-outs stand apart in the source and are kept apart here.
What was measured:
[1] = human, in vivo
Method: This is an open-label, multi-center, dose-escalation study being conducted in 2 parts. Part 1 of the study was open to patients with advanced tumors.
The PK analysis was conducted on preliminary interim data using nominal collection times.

[2] = IV pharmacokinetics in dogs; details: Beagle, in vivo, dog
[3] = tested on: LoVo cells; assay: Inhibition of cell growth and potentiation of temozolomide/topotecan, LoVo; assay type: cell-based
[4] = tested on: LoVo xenografts; assay: Tumor growth delay with X-irradiation, LoVo xenografts; assay type: in vivo
Method: The experimental endpoint was defined to be the time required for relative tumor volume to increase to four times the volume measured at the start of treatment (RTV4). Growth delays were calculated from the difference in time taken to achieve RTV4 (days) between IR/Formula 1 treated tumors and untreated controls.

[5] = 15 mg/kg single IV dose as glucuronate salt

CNCc1ccc(-c2[nH]c3cc(F)cc4c3c2CCNC4=O)cc1.O=P(O)(O)O [Compound I, phosphate salt of 8-fluoro-2-{4-[(methylamino)methyl]phenyl}-1,3,4,5-tetrahydro-6H-azepino[5,4,3-cd]indol-6-one]
mean total body clearance [1]: 27 L/h
dose proportionality in AUC(0-24) and Cmax ([1]; iv): linear dose proportionality
mean terminal half-life ([1]; iv): 6.2 to 10.7 h
AUC0-24 ([1]; iv, 1 mg/m2): 24.2 ng·h/mL
AUCinf ([1]; iv, 1 mg/m2): 24.2 ng·h/mL
AUC0-24 ([1]; iv, 2 mg/m2): 139.0 ng·h/mL
AUCinf ([1]; iv, 2 mg/m2): 167.0 ng·h/mL
AUC0-24 ([1]; iv, 4 mg/m2): 237.3 ng·h/mL
AUCinf ([1]; iv, 4 mg/m2): 286.6 ng·h/mL
CL ([1]; iv, 4 mg/m2): 26.0 L/h
Cmax ([1]; iv, 4 mg/m2): 168.9 ng/mL
Vss ([1]; iv, 4 mg/m2): 286.4 L
t1/2 ([1]; iv, 4 mg/m2): 10.7 h
AUC0-24 ([1]; iv, 8 mg/m2): 892.4 ng·h/mL
AUCinf ([1]; iv, 8 mg/m2): 1118.8 ng·h/mL
CL ([1]; iv, 8 mg/m2): 16.9 L/h
Cmax ([1]; iv, 8 mg/m2): 456.4 ng/mL
Vss ([1]; iv, 8 mg/m2): 151.7 L
t1/2 ([1]; iv, 8 mg/m2): 10.5 h
AUC0-24 ([1]; iv, 12 mg/m2): 1017.1 ng·h/mL
AUCinf ([1]; iv, 12 mg/m2): 1163.3 ng·h/mL
CL ([1]; iv, 12 mg/m2): 23.9 L/h
Cmax ([1]; iv, 12 mg/m2): 882.5 ng/mL
Vss ([1]; iv, 12 mg/m2): 270.1 L
t1/2 ([1]; iv, 12 mg/m2): 10.6 h

CNCc1ccc(-c2[nH]c3cc(F)cc4c3c2CCNC4=O)cc1 [compound of formula 1, 8-fluoro-2-{4-[(methylamino)methyl]phenyl}-1,3,4,5-tetrahydro-6H-azepino[5,4,3-cd]indol-6-one]
AUC(0-inf) ([2]; 15 mg/kg single IV dose (free base) as glucuronate salt): 4100 ± 500 ng·h/mL
clearance [2, 5]: 61.8 ± 8.2 mL/min/kg
half-life [2, 5]: 4.5 ± 1.1 h
Vd ([2]; 15 mg/kg single IV dose as glucuronate salt, read-out: Vss): 15.2 ± 2.3 L/kg
Temozolomide PF50 ([3]; +0.4 μM compound of formula 1): 8 and 8.1
Topotecan PF50 ([3]; +0.4 μM compound of formula 1): 1.6 and 1.7
GI50 ([3]; Homo sapiens, 120 h, 5-day continuous exposure): 12 µM
Enhancement (%) ([4]; IR 2 Gy + 0.15 mg/kg i.p. 30 minutes before, daily × 5, 0.15 mg/kg): 36% and 36^e %
Enhancement (%) ([4]; IR 2 Gy + 15 mg/kg i.p. 30 minutes before, daily × 5, 15 mg/kg): 36% and 36^f %

— US20060074073A1, “Therapeutic combinations comprising poly (ADP-ribose) polymerases inhibitor” (AGOURON PHARMACEUTICALS, INC., priority 2004, published 2006)
